# Assay results taken from patent US20180256654A1, “USE OF LACTOBACILLUS PARACASEI STRAIN GMNL-653 TO PREPARE COMPOSITION FOR RESISTING BONE LOSS” (GENMONT BIOTECH INC., priority 2017, published 2018).
# Test system: ovariectomized ICR female mice
# Assay: Bone tissue analysis by micro computed tomography: trabecular bone volume ratio in the osteoporosis mouse model
# Type: in vivo
# Settings: oral gavage for 28 days
# Protocol: Preparation of dead bacteria: 1 μl Lactobacillus paracasei strain GMNL-653 and the Lactobacillus salivarius strain GMNL-678 frozen viral was inoculated to 1 ml of MRS broth, respectively, and aerobically incubated at 37° C. for 20 hours (first activation). The next day, adding 15 μl culture solution (first activation) into 1.5 ml of MRS broth, and then and aerobically incubated at 37° C. for 20 hours (secondary activation) Estimating the bacteria number by using OD 600 nm to adjust the bacteria concentration to 4.1×10^8 CFU/ml, and heat-killed bacteria was carried by autoclaving at 121° C. for 15 minutes. […]
# Micro computed tomography (SkyScan 1076, Kontizh, Belgium, with resolution of 18 μm) was taken of the backbone of the right femur far from the end was taken, and the trabecular bone volume ratio (i.e. bone volume/tissue volume; BV/TV) was analyzed by a software. The analyzed position was selected to include the area of 100 pieces under the growth plate excluding cortical bone. […] The obtained data in the experiments were analyzed with two-way analysis of variance, and the T-test statistical analysis. […] After comparisons, the abovementioned groups were analyzed statistically and noted by different marks to represent the statistically significant differences (* represents p<0.05; ** represents p<0.01 See Table 3 and Table 4, showing the results of the experiment 1.
smiles,measurement,value
NCCCC(O)(P(=O)(O)O)P(=O)(O)O [Alendronate],"BV/TV compared with the disease group (OVX+H2O), in words",higher than the disease group
